Source: US8163768B2, “1,4-dihydropyridine-fused heterocycles, process for preparing the same, use and compositions containing them” (Aventis Pharma S.A.., priority 2005, dated 2012)
Counter-ions that a name gives are not always drawn.

Tests used:
Aurora2 (Aurora-A) = target: T1, Aurora2 (Aurora-A) (Homo sapiens, UniProt O14965); assay: Aurora 2 (Aurora A) kinase radioactivity scintillation assay using nickel chelate Flash plates; type: biochemical; settings: 10 nM Aurora-A, 500 nM NuMA substrate, 1 μM ATP with [33P] ATP, 10 mM MgCl2, 30 minutes, 37° C.
T1 construct: Aurora-A: the full length recombinant protein including an N-terminal poly-histidine tail has been expressed in E. coli; poly-histidine (N); made in house; host or cells: E. coli
T1 sequence (O14965 1-403): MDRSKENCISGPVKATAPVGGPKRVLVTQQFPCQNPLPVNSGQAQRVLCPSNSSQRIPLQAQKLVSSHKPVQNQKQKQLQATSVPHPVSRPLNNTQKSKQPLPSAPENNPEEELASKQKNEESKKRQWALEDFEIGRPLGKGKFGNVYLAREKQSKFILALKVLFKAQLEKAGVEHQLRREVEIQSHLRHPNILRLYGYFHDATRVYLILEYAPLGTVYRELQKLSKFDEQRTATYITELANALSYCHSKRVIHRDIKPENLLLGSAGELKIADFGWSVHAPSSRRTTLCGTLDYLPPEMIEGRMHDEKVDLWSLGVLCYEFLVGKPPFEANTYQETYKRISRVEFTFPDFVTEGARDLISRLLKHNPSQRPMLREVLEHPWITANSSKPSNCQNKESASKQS
Procedure, shortened: (§1)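 10 nM Aurora-B or Aurora-A with 500 nM NuMA-His substrate, 1 μM ATP plus [³³P]ATP, in 50 mM NaCl, 1 mM DTT and 5 mM (B) or 10 mM (A) MgCl2, 30 min at 37° C on nickel-chelate plates. Incorporated ³³P counted after washing, background-subtracted; IC50 fitted from % inhibition versus concentration.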

Aurora1 (Aurora-B) = target: T2, Aurora1 (Aurora-B) (Homo sapiens, UniProt Q96GD4); assay: Aurora 1 (Aurora B) kinase radioactivity scintillation assay using nickel chelate Flash plates; type: biochemical; settings: 10 nM Aurora-B (co expressed with C3 fragment of INCEP), 500 nM NuMA substrate, 1 μM ATP with [33P] ATP, 5 mM MgCl2, 30 minutes, 37° C.
T2 construct: Aurora-B: the full length protein (His tagged in N-terminal) has been co expressed in SF9 cells; poly-histidine (N); made in house; host or cells: SF9 cells
Procedure, shortened: as §1

T2 sequence (Q96GD4 whole entry, species assumed, the tested form may be a part): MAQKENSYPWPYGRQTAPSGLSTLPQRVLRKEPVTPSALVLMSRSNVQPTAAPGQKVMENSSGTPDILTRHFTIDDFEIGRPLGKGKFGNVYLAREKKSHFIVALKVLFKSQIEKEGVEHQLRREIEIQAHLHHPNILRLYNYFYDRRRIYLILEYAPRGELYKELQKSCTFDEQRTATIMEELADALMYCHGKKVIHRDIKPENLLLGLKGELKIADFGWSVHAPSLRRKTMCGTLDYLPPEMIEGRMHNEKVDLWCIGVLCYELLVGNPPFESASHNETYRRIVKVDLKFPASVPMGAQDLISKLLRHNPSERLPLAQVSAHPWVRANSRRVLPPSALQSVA
T2 sequence (Q9NQS7 821-918 partner limits assumed, species assumed): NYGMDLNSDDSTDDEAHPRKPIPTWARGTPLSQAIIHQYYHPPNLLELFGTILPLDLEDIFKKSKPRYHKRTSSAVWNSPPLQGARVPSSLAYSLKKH

Row | SMILES | IC50 (Aurora2 (Aurora-A)) | IC50 (Aurora1 (Aurora-B))
1 | Cc1nc(Sc2ccc(C3C4=C(CNCC4=O)Nc4n[nH]cc43)o2)[nH]c1C (stereo not shown) [Example 100, 4-[5-(4,5-Dimethyl-1H-imidazol-2-ylsulfanyl)-furan-2-yl]-2,4,6,7,8,9-hexahydro-pyrazolo[3,4-b]-1,7-naphthyridin-5-one; compound with trifluoro-acetic acid] | 5440 nM | 5430 nM
2 | CCCCCC1CC(=O)C2=C(C1)Nc1n[nH]cc1C2c1ccc(Sc2nc3ccccc3[nH]2)o1 (stereo not shown) [Example 37, 4-[5-(1H-Benzimidazol-2-ylsulfanyl)-furan-2-yl]-7-pentyl-2,4,6,7,8,9-hexahydro-pyrazolo[3,4-b]quinolin-5-one; compound with trifluoro-acetic acid] | 29 nM | 7 nM
3 | COc1ccc2[nH]c(Sc3ccc(C4C5=C(CC(C)(C)CC5=O)Nc5n[nH]cc54)o3)nc2c1 (stereo not shown) [Example 81, 4-[5-(5-Methoxy-1H-benzimidazol-2-ylsulfanyl)-furan-2-yl]-7,7-dimethyl-2,4,6,7,8,9-hexahydro-pyrazolo[3,4-b]quinolin-5-one] | 33 nM | 11 nM
4 | Cc1c[nH]c(Sc2ccc(C3C4=C(CC(C)(C)CC4=O)Nc4n[nH]cc43)o2)n1 (stereo not shown) [Example 91, 7,7-Dimethyl-4-[5-(4-methyl-1H-imidazol-2-ylsulfanyl)-furan-2-yl]-2,4,6,7,8,9-hexahydro-pyrazolo[3,4-b]quinolin-5-one; compound with trifluoro-acetic acid] | 156 nM | 86 nM
5 | CCOC(=O)c1[nH]cc2c1NC1=C(C(=O)CNC1)C2c1ccc(Sc2nc3cc(Cl)c(C)cc3[nH]2)o1 (stereo not shown) [Example 135, 9-[5-(5-Chloro-6-methyl-1H-benzimidazol-2-ylsulfanyl)-furan-2-yl]-8-oxo-4,5,6,7,8,9-hexahydro-2H-pyrrolo[3,4-b]-1,7-naphthyridine-3-carboxylic acid ethyl ester hydrochloride] | 120 nM | 22 nM
6 | O=C1CNCC2=C1C(c1ccc(Sc3nc4cc(F)cc(F)c4[nH]3)o1)c1c[nH]nc1N2 (stereo not shown) [Example 145, 4-[5-(5,7-Difluoro-1H-benzimidazol-2-ylsulfanyl)-furan-2-yl]-2,4,6,7,8,9-hexahydro-pyrazolo[3,4b]-1,7-naphthyridin-5-one hydrochloride] | 131 nM | 16 nM
7 | CCOC(=O)c1[nH]cc2c1NC1=C(C(=O)CC(C)(C)C1)C2c1ccc(Sc2nc3cc(C)ccc3[nH]2)o1 (stereo not shown) [Example 109, 6,6-Dimethyl-9-[5-(5-methyl-1H-benzimidazol-2-ylsulfanyl)-furan-2-yl]-8-oxo-4,5,6,7,8,9-hexahydro-2H-pyrrolo[3,4-b]quinoline-3-carboxylic acid ethyl ester] | 63 nM | 17 nM
8 | CCOC(=O)c1[nH]cc2c1NC1=C(C(=O)CNC1)C2c1ccc(Sc2nc3cc(Cl)cc(C)c3[nH]2)o1 (stereo not shown) [Example 138, 9-[5-(5-Chloro-7-methyl-1H-benzimidazol-2-ylsulfanyl)-furan-2-yl]-8-oxo-4,5,6,7,8,9-hexahydro-2H-pyrrolo[3,4-b]-1,7-naphthyridine-3-carboxylic acid ethyl ester hydrochloride] | 8 nM | 6 nM
9 | CC1(C)CC(=O)C2=C(C1)Nc1n[nH]cc1C2c1ccc(Sc2nc3cc(Cl)ccc3s2)o1 (stereo not shown) [Example 75, 4-[5-(5-Chloro-benzothiazol-2-ylsulfanyl)-furan-2-yl]-7,7-dimethyl-2,4,6,7,8,9-hexahydro-pyrazolo[3,4-b]quinolin-5-one] | 73 nM | 183 nM
10 | CCOC(=O)c1[nH]cc2c1NC1=C(C(=O)CN(C(=O)OC(C)(C)C)C1)C2c1ccc(Sc2nc3cc(Cl)c(C)cc3[nH]2)o1 (stereo not shown) [Example 134] | 525 nM | 47 nM
11 | CCOC(=O)c1[nH]cc2c1NC1=C(C(=O)CNC1)C2c1ccc(Sc2nc3cccnc3[nH]2)o1 (stereo not shown) [Example 113, 9-[5-(3H-Imidazo[4,5-b]pyridin-2-ylsulfanyl)-furan-2-yl]-8-oxo-4,5,6,7,8,9-hexahydro-2H-pyrrolo[3,4-b][1,7]naphthyridine-3-carboxylic acid ethyl ester] | 112 nM | 23 nM
12 | CCOC(=O)c1[nH]cc2c1NC1=C(C(=O)CCC1)C2c1ccc(Sc2nc3cc(O)ccc3[nH]2)o1 (stereo not shown) [Example 89, 9-[5-(5-Hydroxy-1H-benzoimidazol-2-ylsulfanyl)-furan-2-yl]-8-oxo-4,5,6,7,8,9-hexahydro-2H-pyrrolo[3,4-b]quinoline-3-carboxylic acid ethyl ester] | 355 nM | 31 nM
13 | Cn1c(-c2ccc(Cl)cc2)cnc1Sc1ccc(C2C3=C(CCCC3=O)Nc3n[nH]cc32)o1 (stereo not shown) [Example 92, 4-{5-[5-(4-Chloro-phenyl)-1-methyl-1H-imidazol-2-ylsulfanyl]-furan-2-yl}-2,4,6,7,8,9-hexahydro-pyrazolo[3,4-b]quinolin-5-one] | 2090 nM | 233 nM
14 | O=C1CC(c2ccccc2)CC2=C1C(c1ccc(Sc3nc4ccccc4[nH]3)o1)c1c[nH]nc1N2 (stereo not shown) [Example 29, 4-[5-(1H-Benzimidazol-2-ylsulfanyl)-furan-2-yl]-7-phenyl-2,4,6,7,8,9-hexahydro-pyrazolo[3,4-b]quinolin-5-one; compound with trifluoro-acetic acid] | 100 nM | 36 nM
15 | O=C1CC(c2ccccc2F)CC2=C1C(c1ccc(Sc3nc4ccccc4[nH]3)o1)c1c[nH]nc1N2 (stereo not shown) [Example 38, 4-[5-(1H-Benzimidazol-2-ylsulfanyl)-furan-2-yl]-7-(2-fluoro-phenyl)-2,4,6,7,8,9-hexahydro-pyrazolo[3,4-b]quinolin-5-one; compound with trifluoro-acetic acid] | 18 nM | 7 nM
16 | CCOC(=O)c1[nH]cc2c1NC1=C(C(=O)CCC1)C2c1ccc(Sc2nc3cc(OC(F)(F)F)ccc3[nH]2)o1 (stereo not shown) [Example 150, 8-Oxo-9-[5-(5-trifluoromethoxy-1H-benzimidazol-2-ylsulfanyl)-furan-2-yl]-4,5,6,7,8,9-hexahydro-2H-pyrrolo[3,4-b]quinoline-3-carboxylic acid ethyl ester] | 29 nM | 19 nM
17 | COc1ccc2[nH]c(Sc3ccc(C4C5=C(CCCC5=O)Nc5n[nH]cc54)o3)nc2c1 (stereo not shown) [Example 79, 4-[5-(5-Methoxy-1H-benzimidazol-2-ylsulfanyl)-furan-2-yl]-2,4,6,7,8,9-hexahydro-pyrazolo[3,4-b]quinolin-5-one; compound with trifluoro-acetic acid] | 70 nM | 15 nM
18 | O=C1OCC2=C1C(c1ccc(Sc3nc4ccccc4[nH]3)o1)c1c[nH]nc1N2 (stereo not shown) [Example 42, 4-[5-(1H-Benzoimidazol-2-ylsulfanyl)-furan-2-yl]-2,4,7,8-tetrahydro-6-oxa-1,2,8-triaza-s-indacen-5-one; compound with trifluoro-acetic acid] | 508 nM | 17 nM
19 | O=C1CCCC2=C1C(c1ccc(Sc3nc4cc(Cl)ccc4o3)o1)c1c[nH]nc1N2 (stereo not shown) [Example 88, 4-[5-(5-Chloro-benzoxazol-2-ylsulfanyl)-furan-2-yl]-2,4,6,7,8,9-hexahydro-pyrazolo[3,4-b]quinolin-5-one; compound with trifluoro-acetic acid] | 362 nM | 91 nM
20 | CC1(C)CC(=O)C2=C(C1)Nc1n[nH]cc1C2c1ccc(Sc2nc3ccccc3[nH]2)o1 (stereo not shown) [Example 4, 4-[5-(1H-Benzimidazol-2-ylsulfanyl)-furan-2-yl]-7,7-dimethyl-2,4,6,7,8,9-hexahydro-pyrazolo[3,4-b]quinolin-5-one] | 15 nM | 4 nM
21 | CCOC(=O)c1[nH]cc2c1NC1=C(C(=O)CCC1)C2c1ccc(Sc2nc3cc(C(F)(F)F)ccc3[nH]2)o1 (stereo not shown) [Example 132, 8-Oxo-9-[5-(5-trifluoromethyl-1H-benzimidazol-2-ylsulfanyl)-furan-2-yl]-4,5,6,7,8,9-hexahydro-2H-pyrrolo[3,4-b]quinoline-3-carboxylic acid ethyl ester] | 114 nM | 14 nM
22 | CN1C2=C(C(=O)CCC2)C(c2ccc(Sc3nc4ccccc4[nH]3)o2)c2c[nH]nc21 (stereo not shown) [Example 59, 4-[5-(1H-Benzimidazol-2-ylsulfanyl)-furan-2-yl]-9-methyl-2,4,6,7,8,9-hexahydro-pyrazolo[3,4-b]quinolin-5-one; compound with trifluoro-acetic acid] | 2220 nM | 136 nM
23 | CC1(C)CC(=O)C2=C(C1)Nc1n[nH]cc1C2c1ccc(Sc2nc3cc(Cl)c(Cl)cc3[nH]2)o1 (stereo not shown) [Example 87, 4-[5-(5,6-Dichloro-1H-benzoimidazol-2-ylsulfanyl)-furan-2-yl]-7,7-dimethyl-2,4,6,7,8,9-hexahydro-pyrazolo[3,4-b]quinolin-5-one] | 22 nM | 8 nM
